Like-named read-outs stand apart in the source and are kept apart here.
Experiments:
stress ulcer in rat = test: Inhibitory effect on stress ulcer in rat (restraint and water-immersion stress method); type: in vivo; settings: read-out: Inhibitory Effect (%)
Protocol: INHIBITORY EFFECT ON STRESS ULCER IN RAT
The compounds of this invention were administered orally to 7 rats weighing about 300 g in each group. After 30 minutes, they were immobilized and immersed in water at 21° C. for 7 hours to prepare the stress ulcer.

in vivo = settings: mouse, po, mice, orally administered, read-out: acute toxicity (LD50)
[1] = disclosed in Japanese Patent Application (OPI) No. 18947/81; cited from earlier work
[2] = 50 mg/kg, oral, rat, 30 minutes before immobilization and immersion in water at 21° C. for 7 hours, *P < 0.05, **P < 0.01
[3] = 100 mg/kg, oral, rat, 30 minutes before immobilization and immersion in water at 21° C. for 7 hours, *P < 0.05, **P < 0.01
[4] = 200 mg/kg, oral, rat, 30 minutes before immobilization and immersion in water at 21° C. for 7 hours, *P < 0.05, **P < 0.01

Row | SMILES | inhibition in vivo at 50 mg/kg (stress ulcer in rat; [2]) [%] | inhibition in vivo at 100 mg/kg (stress ulcer in rat; [3]) [%] | inhibition in vivo at 200 mg/kg (stress ulcer in rat; [4]) [%] | LD50 (in vivo) [mg/kg] | chemical and physical properties (stability) [1] | inhibition in vivo at 50 mg/kg (stress ulcer in rat; Rattus norvegicus, po, 7 h) [%] | inhibition in vivo at 100 mg/kg (stress ulcer in rat; Rattus norvegicus, po, 7 h) [%] | inhibition in vivo at 200 mg/kg (stress ulcer in rat; Rattus norvegicus, po, 7 h) [%]
1 | CNC(=O)c1ccc(OC)cc1NCC(=O)NCCc1ccc(OC)c(OC)c1 [Compound c, 2-((2-((2-(3,4-dimethoxyphenyl)ethyl)amino)-2-oxoethyl)amino)-4-methoxy-N-methylbenzamide] | 33 | 36 | 69 | > 2000 | – | – | – | –
2 | COc1ccc(CCNC(=O)CNc2cccc(C(=O)N(C)C)c2)cc1OC [Compound e, 3((2-((2-(3,4-Dimethoxyphenyl)ethyl)amino)-2-oxoethyl)amino)-N,N-dimethylenzamide] | 39 | 55 | 64 | – | – | – | – | –
3 | COc1ccc(CCNC(=O)CNc2cccc(C(N)=O)c2)cc1OC.O.O.O [Control, 2-(3-carbamoylphenylamino)-N-(3,4-dimethoxyphenethyl)acetamide trihydrate] | – | – | – | – | stable chemical and physical properties | – | – | –
4 | COc1ccc(CCNC(=O)CNc2cccc(C(=O)N3CCOCC3)c2)cc1OC [Compound f, N(2-(3,4-Dimethoxyphenyl)ethyl)-2-((3-morpholinocarbonylphenyl)amino)acetmide] | 10 | 53 | 86 | – | – | – | – | –
5 | COc1ccc(CCNC(=O)CN(CS(=O)(=O)[O-])c2cccc(C(N)=O)c2)cc1OC.[Na+] | – | – | – | > 2000 | – | 34 | 36 | 42
6 | CNC(=O)c1cccc(NCC(=O)NCCc2ccc(OC)c(OC)c2)c1 [Compound a] | 46 | 60 | 72 | – | – | – | – | –
7 | CCNC(=O)c1cccc(NCC(=O)NCCc2ccc(OC)c(OC)c2)c1 [Compound b, 3-((2-((2-(3,4-dimethoxyphenyl)ethyl)amino)-2-oxoethyl)amino)-N-ethylbenzamide] | 30 | 53 | 63 | – | – | – | – | –
8 | CNC(=O)c1cc(OC)ccc1NCC(=O)NCCc1ccc(OC)c(OC)c1 [Compound g] | 45 | 41 | 65 | – | – | – | – | –

— patent US4985595A, “Aminobenzamide derivatives” (Daiichi Pharmaceutical Co., Ltd., priority 1984, dated 1991)
